Biological target: A2 Adenosine receptor (Rattus norvegicus, UniProt P30543)
Assay: biochemical
Experimental: The membrane preparation is obtained as follows: Frozen pellets of PC12 cells are washed twice with ice cold, buffered, physiological saline and the cells recovered by centrifugation (1500 G) at 3° C. The separated cells are then suspended in hypotonic solution (distilled water), allowed to stand on ice for 30 minutes and are then carefully homogenized using a standard high-speed homogeniser with periodic ice-cooling to obtain a fine suspension. […] The mixture is then incubated at 37° C. After 20 minutes, the reaction is terminated by dilution with ice-cold buffer and transfer onto ice. The material obtained containing the cell membranes is recovered by centrifugation and washed by resuspension in buffer and recentrifugation. The pellet produced is then resuspended in ice-cold buffer using a hand-driven homogenizer. The resultant membrane suspension is frozen and stored under liquid nitrogen until required.
After incubation, the samples are rapidly filtered over glass-fibre mats and the filter mats are washed to remove non-receptor-bound radioligand. Receptor-bound radioligand entrapped on the filter mats is then determined by liquid scintillation counting. […] The specific binding (defined as the difference between the total binding and the non-specific binding) in the presence of the particular test compound is determined and compared with the control value.

A2 Adenosine receptor, sequence (P30543 whole entry): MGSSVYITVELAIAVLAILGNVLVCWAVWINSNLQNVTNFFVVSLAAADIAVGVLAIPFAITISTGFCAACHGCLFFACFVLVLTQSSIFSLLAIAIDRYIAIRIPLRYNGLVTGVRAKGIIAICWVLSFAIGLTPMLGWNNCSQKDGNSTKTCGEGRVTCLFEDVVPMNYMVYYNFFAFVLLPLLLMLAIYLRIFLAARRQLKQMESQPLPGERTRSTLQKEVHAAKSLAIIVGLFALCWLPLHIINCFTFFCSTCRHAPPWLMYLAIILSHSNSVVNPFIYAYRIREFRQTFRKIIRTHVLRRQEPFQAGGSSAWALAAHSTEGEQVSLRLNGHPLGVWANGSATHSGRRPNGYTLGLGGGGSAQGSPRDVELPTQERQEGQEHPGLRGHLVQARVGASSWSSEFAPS

IC50: ~10 nM
SMILES: Nc1nc(Oc2ccccc2)nc2nc(-c3ccco3)nn12 [Example 2, 7-amino-2-(2-furyl)-5-phenoxy[1,2,4]triazolo[1,5-a][1,3,5]triazine]

Reference: patent publication US5326869A (priority 1991, dated 1994)
